Assay results as given in patent US11351222B2, “Di-sulfide containing cell penetrating peptides and methods of making and using thereof” (Ohio State Innovation Foundation, priority 2016, dated 2022).
Bridge positions count the residues as written; N and C are the ends. Square brackets hold non-standard residues; d marks the D form. Ends that are not written are not given here. BMB = 3,5-bis(mercaptomethyl)benzoic acid scaffold; 2Nal = N[C@@H](Cc1ccc2ccccc2c1)C(=O)O

Key:
HeLa cells = assay: Flow cytometry cellular uptake of FITC-labeled peptides; format: cell-based; details: for mean fluorescence intensity (MFI): 5 μM FITC-labeled peptide; for mean fluorescence intensity (MFI) / higher cell entry efficiency than cFΦR4: 2 h; for higher cell entry efficiency than cFΦR4: 5 μM
Procedure: HeLa cells were cultured in six-well plates (5×10^5 cells per well) for 24 h. On the day of experiment, the cells were incubated with 5 μM FITC-labeled peptide in clear DMEM with 1% FBS at 37° C. for 2 h. The cells were washed with DPBS, detached from plate with 0.25% trypsin, diluted into clear DMEM containing 10% FBS, pelleted at 250 g for 5 min, washed once with DPBS and resuspended in DPBS containing 1% bovine serum albumin, and analyzed on a BD LSR II flow cytometer. Data were analyzed with Flowjo software (Tree Star).
To monitor their cellular uptake, peptides 2 and 3 were labeled with fluorescein isothiocyanate (FITC) on the side chain of a C-terminal lysine. […] Thus, bicyclic peptides 2 and 3 entered HeLa cells with 72% and 36% higher efficiencies, respectively, than cFΦR4 (SEQ ID NO.:72).
Peptides 4 and 5 were labeled with FITC at the side chain of a lysine added to their C-termini and their cellular entry was assessed by flow cytometry. […] Briefly, in the presence of an anti-glutathione-S-transferase (GST) antibody labeled with a fluorescence donor (Tb) and streptavidin labeled with a fluorescence acceptor (d2), binding of GST-NEMO to a biotinylated IKKβ fragment (amino acids 701-745) (B. Gao, et al., Biochemistry 2014, 53, 677) results in a resonance energy transfer. Addition of a NEMO inhibitor blocks the NEMO-IKKβ interaction and reduces the HTRF signal. […] IKKβ contains a phenylalanine at the same position (Phe-734). […] Thus, the phenylalanine in peptide 4 likely plays dual roles of cellular entry and NEMO binding.

NEMO-IKKβ interaction = target: T1, NEMO-IKKβ interaction (Homo sapiens, UniProt Q9Y6K9); assay: HTRF assay of the NEMO-IKKβ interaction; format: binding; details: up to 100 μM peptide, 5 mM TCEP
T1 construct: transformed with a pGEX4T3-GST-NEMO(1-196) plasmid; made in house; host or cells: Escherichia coli BL21(DE3)
T1 sequence (Q9Y6K9 1-196): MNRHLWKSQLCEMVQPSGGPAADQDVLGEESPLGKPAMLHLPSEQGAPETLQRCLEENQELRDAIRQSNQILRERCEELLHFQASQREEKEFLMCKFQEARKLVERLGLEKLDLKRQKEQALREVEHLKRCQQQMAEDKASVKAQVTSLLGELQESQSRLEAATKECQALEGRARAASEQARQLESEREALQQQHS

[1] = system: TNFα-induced activation of NF-κB in NF-κB reporter (Luc)-HEK293 cells; assay: NF-κB luciferase assay
Procedure: NF-κB reporter (Luc)-HEK293 cells were seeded in 96-well microplate in 45 μL of assay medium (DMEM, 10% FBS, and 1% penicillin/streptomycin, 1500 cells per well) and cultured overnight. Five μL of NEMO inhibitor in assay medium was added to cells and the cells were incubated for 2 h. Recombinant TNFα^3 in 5 μL of assay medium was added to the wells at the final concentration of 5 ng/mL. After 4 h of incubation, 55 μL of ONE-Step luciferase assay reagent was added to each well. Luminescence was measured after 10 min of incubation using a Tecan Infinite M1000 Pro microplate reader. Luciferase activities of TNFα unstimulated and stimulated cells were recorded as AU″ and AU^+, respectively. Luciferase activities of TNFα stimulated cells after incubating with different concentrations of NEMO inhibitors were recorded as AU^pep.
The ability of the bicyclic peptides to modulate the NEMO-IKK interaction inside the cell was assessed by monitoring the TNFα-induced activation of NF-κB.

mammalian cells = details: previously reported; cited from earlier work

Substance | MFI higher than that of cFΦR4 (HeLa cells; FITC-labeled peptide, relative to cFΦR4) [fold] | inhibition of the NEMO-IKKβ interaction (NEMO-IKKβ interaction) | effect on NF-κB signaling ([1]; at 20 μM) | inhibition of NF-κB signaling ([1]; highest concentration tested (40 μM)) [%] | mean fluorescence intensity (MFI) (HeLa cells) | higher cell entry efficiency than cFΦR4 (HeLa cells; relative to cFΦR4) [%] | cytosolic delivery efficiency (ratio of cytosolic over extracellular cargo concentration) (mammalian cells) [%]
5: control, similar to peptide 4 but two Ala residues in place of the two Trp residues (RRRR[2Nal]FCALDASALQC; linker 7-16 via BMB; not fully specified (C-terminus, bridges)) [Peptide 5] | 2 | only minor inhibition | no significant effect | ~10 | – | – | –
3: bicyclic model peptide with CPP motif and mock cargo SASAS on BMB scaffold (cyclo(SASASCF[2Nal]RRRRCK); linker 6-13 via BMB (inferred)) [Peptide 3] | – | – | – | – | 4100 | 36 | –
Cyclo(FΦRRRRQ) [cFΦR4, reference compound] | – | – | – | – | 3020 | – | 20
2: bicyclic model peptide with CPP motif and mock cargo SASAS on BMB scaffold (cyclo(RRRR[2Nal]FCSASASCK); linker 7-13 via BMB (inferred)) [Peptide 2] | – | – | – | – | 5180 | 72 | –
